Results reported in patent US7645764B2, “Kinase inhibitors and methods for using the same” (Roche Palo Alto LLC, priority 2006, dated 2010).

Tests used:
cloned human c-Raf = target: T1, cloned human c-Raf (Homo sapiens, UniProt P04049); assay: c-Raf HTRF assay with 6H-MEK as substrate (dose response); assay type: biochemical; conditions: 6H-MEK substrate
T1 construct: made in house; host or cells: High-5 (Hi5) insect cells, baculovirus, co-infected with FLAG-vSrc
Method: c-Raf HTRF Assay with 6H-MEK as Substrate (Dose Response)
This assay utilizes 6H-MEK as the substrate. Upon c-Raf phosphorylation, phosphorylated 6H-MEK is detected with rabbit anti-phospho-MEK1/2, Eu-labeled anti-rabbit, and APC-labeled anti-6H antibodies.
(§1) Procedure • (1) Prepare Kinase Assay Buffer (KAB): 50 mM HEPES (HyClone) pH7, 10 mM MgCl2, 1 mM DTT, 0.1 mM […], and 0.3 mg/ml BSA. • (2) Prepare 6H-MEK (150 nM) in KAB. Add 12 μl/well to the assay plate. • (3) Prepare ATP (66 μM) in KAB. • (4) Dilute compounds to 2.4 mM and any positive controls to 480 μM in DMSO. Perform 10-point 3× dilution in DMSO. […] For the cross talk factor sample, add 6 μl/well of Eu-anti rabbit IgG (9 nM). • (14) Incubate at room temperature for 1.5 hours. • (15) Read HTRF signals at 615 nm and 665 nm on the Envision. […]
N terminal EE-tagged c-Raf was expressed in High-5 cells. […] Protein concentration was determined by the BioRad DC method.

[1] = target: T2, recombinant human b-Raf residues 416-end containing a V600E mutation (Homo sapiens, UniProt P15056, V600E); assay: b-Raf V600E mutant HTRF assay with 6H-MEK as substrate (dose response); assay type: biochemical; conditions: 6H-MEK substrate
T2 construct: recombinant human b-Raf residues 416-end containing a V600E mutation; purchased Upstate 14-5M; host or cells: baculovirus in Sf21 insect cells
Method: b-Raf V600E Mutant HTRF Assay with 6H-MEK as Substrate (Dose Response)
This assay utilizes 6H-MEK as the substrate. Upon b-Raf V600E phosphorylation, phosphorylated 6H-MEK is detected with rabbit anti-phospho-MEK1/2, Eu-labeled anti-rabbit, and APC-labeled anti-6H antibodies.
as §1, with “Assay Procedure:” for “Procedure”, “and” for “and any”

[2] = target: T3, recombinant human b-Raf residues 416-end (wild type) (Homo sapiens, UniProt P15056); assay: b-Raf wild-type HTRF assay with 6H-MEK as substrate (dose response); assay type: biochemical; conditions: 6H-MEK substrate
T3 construct: recombinant human b-Raf residues 416-end with N-terminal GST-tag; purchased Upstate 14-530M; host or cells: baculovirus in Sf21 insect cells
Method: b-Raf Wild-Type HTRF Assay with 6H-MEK as Substrate (Dose Response)
This assay utilizes 6H-MEK as the substrate. Upon b-Raf WT phosphorylation, phosphorylated 6H-MEK is detected with rabbit anti-phospho-MEK1/2, Eu-labeled anti-rabbit, and APC-labeled anti-6H antibodies.
as §1, with “Assay Procedure:” for “Procedure”

p38 MAP kinase = target: T4, p38 MAP kinase (Homo sapiens, UniProt Q16539); assay: p38 MAP kinase in vitro assay (33P-ATP phosphate transfer to Myelin Basic Protein); assay type: biochemical
T4 construct: made in house; host or cells: E. coli (co-expressed with SEK-1 and MEKK)
Method: This example illustrates a p38 (MAP) kinase in vitro assay useful for evaluating the compounds of the invention.
The p38 MAP kinase inhibitory activity of compounds of this invention in vitro was determined by measuring the transfer of the γ-phosphate from γ-^33P-ATP by p-38 kinase to Myelin Basic Protein (MBP), using a minor modification of the method described in Ahn, et al., J. Biol. Chem. 266:4220-4227 (1991).
The phosphorylated form of the recombinant p38 MAP kinase was co-expressed with SEK-1 and MEKK in E. Coli (see, Khokhlatchev, et al., J. Biol. Chem. 272:11057-11062 (1997)) and then purified by affinity chromatography using a Nickel column.
The phosphorylated p38 MAP kinase was diluted in kinase buffer (20 mM 3-(N-morpholino)propanesulfonic acid, pH 7.2, 25 mM β-glycerol phosphate, 5 mM ethylene glycol-bis(beta-aminoethyl ether)-N,N,N′,N′-tetraacetic acid, 1 mM sodium ortho-vanadate, 1 mM dithiothreitol, 40 mM magnesium chloride). Test compound dissolved in DMSO or only DMSO (control) was added and the samples were incubated for 10 min at 30° C. The kinase reaction was initiated by the addition of a substrate cocktail containing MBP and γ-^33P-ATP. […] The phosphorylated MBP was then separated from the residual γ-^33P-ATP using a phosphocellulose membrane (Millipore, Bedfrod, Mass.) and quantitated using a scintillation counter (Packard, Meriden, Conn.).

T3 sequence (P15056 416-766 limits assumed): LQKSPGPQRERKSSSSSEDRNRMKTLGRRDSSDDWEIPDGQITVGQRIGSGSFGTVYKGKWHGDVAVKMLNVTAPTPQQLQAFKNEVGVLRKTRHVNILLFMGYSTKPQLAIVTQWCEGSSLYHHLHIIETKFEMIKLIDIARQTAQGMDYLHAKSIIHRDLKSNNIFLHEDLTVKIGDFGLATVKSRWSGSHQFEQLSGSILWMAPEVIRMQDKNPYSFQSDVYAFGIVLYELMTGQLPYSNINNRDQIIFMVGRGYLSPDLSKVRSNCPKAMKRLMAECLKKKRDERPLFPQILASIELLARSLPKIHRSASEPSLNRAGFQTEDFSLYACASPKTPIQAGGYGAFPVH
T2 sequence (P15056 416-766 V600E): as the sequence (P15056 416-766 limits assumed) above, with V185E counted along it
T4 sequence (Q16539 whole entry): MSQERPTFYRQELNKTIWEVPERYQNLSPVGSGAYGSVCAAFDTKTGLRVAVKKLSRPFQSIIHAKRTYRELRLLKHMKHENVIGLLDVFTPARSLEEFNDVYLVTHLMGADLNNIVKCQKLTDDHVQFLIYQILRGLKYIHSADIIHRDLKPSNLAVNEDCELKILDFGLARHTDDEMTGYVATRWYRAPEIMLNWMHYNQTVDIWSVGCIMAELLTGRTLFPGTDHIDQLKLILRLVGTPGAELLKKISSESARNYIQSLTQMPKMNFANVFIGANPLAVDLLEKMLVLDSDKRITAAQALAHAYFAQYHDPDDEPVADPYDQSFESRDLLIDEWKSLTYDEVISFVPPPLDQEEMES
T1 sequence (P04049 whole entry): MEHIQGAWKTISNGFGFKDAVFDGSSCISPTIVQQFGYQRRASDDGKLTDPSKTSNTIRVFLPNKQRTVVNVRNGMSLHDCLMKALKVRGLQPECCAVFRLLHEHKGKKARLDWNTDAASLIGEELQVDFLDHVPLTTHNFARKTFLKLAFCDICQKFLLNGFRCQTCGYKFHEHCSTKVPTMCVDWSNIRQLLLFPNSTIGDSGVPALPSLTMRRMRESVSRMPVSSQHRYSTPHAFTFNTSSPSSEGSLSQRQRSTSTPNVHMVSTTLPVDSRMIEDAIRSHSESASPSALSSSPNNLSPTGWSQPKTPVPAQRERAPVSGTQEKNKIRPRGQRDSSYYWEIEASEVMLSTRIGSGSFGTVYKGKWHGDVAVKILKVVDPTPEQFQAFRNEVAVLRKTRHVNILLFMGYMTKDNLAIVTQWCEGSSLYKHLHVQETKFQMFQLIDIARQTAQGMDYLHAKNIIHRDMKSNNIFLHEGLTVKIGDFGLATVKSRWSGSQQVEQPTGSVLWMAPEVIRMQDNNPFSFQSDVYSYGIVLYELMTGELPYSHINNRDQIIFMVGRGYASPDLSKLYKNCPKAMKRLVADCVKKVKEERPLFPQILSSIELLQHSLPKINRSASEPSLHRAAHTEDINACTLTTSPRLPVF

Molecule `COC(=O)c1ccc(C)c(-c2cc3cnc(NC4CCOCC4)nc3n(C)c2=O)c1` [Compound 1, 4-Methyl-3-[8-methyl-7-oxo-2-(tetrahydro-pyran-4-ylamino)-7,8-dihydro-pyrido[2,3-d]pyrimidin-6-yl]-benzoic acid methyl ester] has a melting point of 122.5 to 126.5 °C.
In the case of `Cc1nnc(-c2ccc(C)c(-c3cc4cnc(NC5CCOCC5)nc4n(C)c3=O)c2)o1` [Compound 4, 8-Methyl-6-[2-methyl-5-(5-methyl-[1,3,4]oxadiazol-2-yl)-phenyl]-2-(tetrahydro-pyran-4-ylamino)-8H-pyrido[2,3-d]pyrimidin-7-one], the IC50 (cloned human c-Raf) is reported as about 190 nM.
`CNC(=O)c1ccc(C)c(-c2cc3cnc(NC4CCOCC4)nc3n(C)c2=O)c1` [Compound 8, 4,N-Dimethyl-3-[8-methyl-7-oxo-2-(tetrahydro-pyran-4-ylamino)-7,8-dihydro-pyrido[2,3-d]pyrimidin-6-yl]-benzamide] gave an IC50 [1] of about 10 nM and an IC50 [2] of about 20 nM.
`Cc1ccc(-c2nnc[nH]2)cc1-c1cc2cnc(NC3CCOCC3)nc2n(C)c1=O` [Compound 11, 8-Methyl-6-[2-methyl-5-(4H-[1,2,4]triazol-3-yl)-phenyl]-2-(tetrahydro-pyran-4-ylamino)-8H-pyrido[2,3-d]pyrimidin-7-one] showed a melting point of 214.9 to 216 °C.
For `Cc1ccc(C#N)cc1-c1cc2cnc(NC3CCOCC3)nc2n(C)c1=O` [Compound 12, 4-Methyl-3-[8-methyl-7-oxo-2-(tetrahydro-pyran-4-ylamino)-7,8-dihydro-pyrido[2,3-d]pyrimidin-6-yl]-benzonitrile], the melting point was 253.5 to 254.1 °C.
Molecule `Cc1ccc(-c2ncc[nH]2)cc1-c1cc2cnc(NC3CCOCC3)nc2n(C)c1=O` [Compound 13, 6-[5-(1H-Imidazol-2-yl)-2-methyl-phenyl]-8-methyl-2-(tetrahydro-pyran-4-ylamino)-8H-pyrido[2,3-d]pyrimidin-7-one] has an IC50 (p38 MAP kinase) of about 0.66 nM.
